In US20060110451A1, “Formulations of [1,4]diazepino[6,7,1-IJ]quinoline derivatives” (priority 2004, published 2006):
Read-outs that look alike come from different tables or passages of the source.

Legend:
[1] = Early toxicology testing in dogs; type: in vivo; settings: oral suspension
Description: Enteric-coated capsules were developed which delayed the release of the drug. […] For human clinical studies, enteric-coated pellets were developed which provided advantages over enteric-coated capsules for dose flexibility and more uniform release in the intestinal tract.

[2] = Ascending multiple dose pharmacokinetics of enteric coated capsules in schizophrenic patients; type: in vivo, human; settings: for Tmax / half-life / AUC(0-t) / Cmax / AUC(0-inf): plasma
Method: Ascending multiple doses of 100, 150, and 250 mg Compound A.HCl were administered as twice-daily regimen (q12h) for 10 days in cohorts of 8 schizophrenic patients (6 active and 2 placebo). Blood samples for Compound A.HCl analysis were obtained on day 1 within 2 hours of test article administration and at various time points from 0.5 to 24 hours after test article administration. On day 10, blood samples were collected up to 12 hours after dose administration. Doses were administered orally after an overnight fast of at least 10 hours on these 2 days. Trough PK samples were collected on days 6, 8, and 9 to assess whether steady-state has been reached.
FIGS. 7A and 7B show the relationship between Cmax vs. dose and AUC vs. dose, respectively.

With `Cl.c1cc2c3c(c1)[C@H]1CCC[C@H]1CN3CCNC2` [Compound A.HCl, (9aR,12aS)-4,5,6,7,9,9a,10,11,12,12a-decahydrocyclopenta[c][1,4]diazepino[6,7,1-ij]quinoline hydrochloride] the “reaction noted in toxicology testing” value [1] was “emetic reaction”, the “relationship between dose and exposure” value ([2]; after excluding 2 outlier patients) was “approximately linear” and the “difference in Tmax or t1/2” value ([2]; at the 250 mg q12h dose level) was “no significant difference”. The “differences in pharmacokinetics between healthy subjects and schizophrenic patients” value ([2]; human, in vivo) was “No significant differences”, the Tmax ([2]; human, oral, schizophrenic patients, single and multiple dose administration, enteric-coated formulation, read-out: mean Tmax) was 4 to 5 h and the half-life ([2]; human, oral, schizophrenic patients, single dose administration, read-out: mean elimination t1/2) was 8 to 10 h. It also gave an AUC(0-t) ([2]; human, po, 100 mg, Schizophrenia patients, multiple oral doses (q12 h) 100 mg, day 10, read-out: AUCss (AUC0-12) (Geom. Mean)) of 31.2 ng·h/mL, an AUC(0-t) ([2]; human, po, 100 mg, Schizophrenia patients, multiple oral doses (q12 h) 100 mg, day 10, read-out: AUCss (AUC0-12) (Mean)) of roughly 33.2 ng·h/mL and a Cmax ([2]; human, po, 100 mg, Schizophrenia patients, multiple oral doses (q12 h) 100 mg, day 10, read-out: Cmax (Geom. Mean)) of 3.82 ng/mL. The Cmax ([2]; human, po, 100 mg, Schizophrenia patients, multiple oral doses (q12 h) 100 mg, day 10, read-out: Cmax (Mean)) was 4 ng/mL, the Tmax ([2]; human, po, 100 mg, Schizophrenia patients, multiple oral doses (q12 h) 100 mg, day 10, read-out: Tmax (Geom. Mean)) was 4.6 h and the Tmax ([2]; human, po, 100 mg, Schizophrenia patients, multiple oral doses (q12 h) 100 mg, day 10, read-out: Tmax (Mean)) was 4.8 h. The AUC(0-inf) ([2]; human, po, 100 mg, Schizophrenia patients, single oral dose 100 mg, day 1, read-out: AUC0-∞ (Geom. Mean)) was 27.1 ng·h/mL, the AUC(0-inf) ([2]; human, po, 100 mg, Schizophrenia patients, single oral dose 100 mg, day 1, read-out: AUC0-∞ (Mean)) was 30.6 ng·h/mL and the Cmax ([2]; human, po, 100 mg, Schizophrenia patients, single oral dose 100 mg, day 1, read-out: Cmax (Geom. Mean)) was 2.07 ng/mL. For the same compound, the Cmax ([2]; human, po, 100 mg, Schizophrenia patients, single oral dose 100 mg, day 1, read-out: Cmax (Mean)) was 2.21 ng/mL, the Tmax ([2]; human, po, 100 mg, Schizophrenia patients, single oral dose 100 mg, day 1, read-out: Tmax (Geom. Mean)) was 4.7 h and the Tmax ([2]; human, po, 100 mg, Schizophrenia patients, single oral dose 100 mg, day 1, read-out: Tmax (Mean)) was 4.8 h. The half-life ([2]; human, po, 100 mg, Schizophrenia patients, single oral dose 100 mg, day 1, read-out: t1/2 (Geom. Mean) (converted)) was 8.67 h, the half-life ([2]; human, po, 100 mg, Schizophrenia patients, single oral dose 100 mg, day 1, read-out: t1/2 (Mean) (converted)) was 8.93 h and the AUC(0-t) ([2]; human, po, 150 mg, Schizophrenia patients, multiple oral doses (q12 h) 150 mg, day 10, read-out: AUCss (AUC0-12) (Geom. Mean)) was 51.3 ng·h/mL. For the same compound, the AUC(0-t) ([2]; human, po, 150 mg, Schizophrenia patients, multiple oral doses (q12 h) 150 mg, day 10, read-out: AUCss (AUC0-12) (Mean)) was roughly 54.9 ng·h/mL, the Cmax ([2]; human, po, 150 mg, Schizophrenia patients, multiple oral doses (q12 h) 150 mg, day 10, read-out: Cmax (Geom. Mean)) was 6.67 ng/mL and the Cmax ([2]; human, po, 150 mg, Schizophrenia patients, multiple oral doses (q12 h) 150 mg, day 10, read-out: Cmax (Mean)) was 7.21 ng/mL. For the same compound, the Tmax ([2]; human, po, 150 mg, Schizophrenia patients, multiple oral doses (q12 h) 150 mg, day 10, read-out: Tmax (Geom. Mean)) was 4.2 h, the Tmax ([2]; human, po, 150 mg, Schizophrenia patients, multiple oral doses (q12 h) 150 mg, day 10, read-out: Tmax (Mean)) was 4.3 h and the AUC(0-inf) ([2]; human, po, 150 mg, Schizophrenia patients, single oral dose 150 mg, day 1, read-out: AUC0-∞ (Geom. Mean)) was 34 ng·h/mL. It also gave an AUC(0-inf) ([2]; human, po, 150 mg, Schizophrenia patients, single oral dose 150 mg, day 1, read-out: AUC0-∞ (Mean)) of 35.6 ng·h/mL, a Cmax ([2]; human, po, 150 mg, Schizophrenia patients, single oral dose 150 mg, day 1, read-out: Cmax (Geom. Mean)) of 3.09 ng/mL and a Cmax ([2]; human, po, 150 mg, Schizophrenia patients, single oral dose 150 mg, day 1, read-out: Cmax (Mean)) of 3.37 ng/mL. It also gave a Tmax ([2]; human, po, 150 mg, Schizophrenia patients, single oral dose 150 mg, day 1, read-out: Tmax (Geom. Mean)) of 4.2 h, a Tmax ([2]; human, po, 150 mg, Schizophrenia patients, single oral dose 150 mg, day 1, read-out: Tmax (Mean)) of 4.6 h and a half-life ([2]; human, po, 150 mg, Schizophrenia patients, single oral dose 150 mg, day 1, read-out: t1/2 (Geom. Mean) (converted)) of 9.25 h. For the same compound, the half-life ([2]; human, po, 150 mg, Schizophrenia patients, single oral dose 150 mg, day 1, read-out: t1/2 (Mean) (converted)) was 9.49 h, the AUC(0-t) ([2]; human, po, 250 mg, Schizophrenia patients, multiple oral doses (q12 h) 250 mg, day 10, read-out: AUCss (AUC0-12) (Geom. Mean)) was 134 ng·h/mL and the AUC(0-t) ([2]; human, po, 250 mg, Schizophrenia patients, multiple oral doses (q12 h) 250 mg, day 10, read-out: AUCss (AUC0-12) (Mean)) was roughly 173 ng·h/mL. The Cmax ([2]; human, po, 250 mg, Schizophrenia patients, multiple oral doses (q12 h) 250 mg, day 10, read-out: Cmax (Geom. Mean)) was 15.9 ng/mL, the Cmax ([2]; human, po, 250 mg, Schizophrenia patients, multiple oral doses (q12 h) 250 mg, day 10, read-out: Cmax (Mean)) was 20.6 ng/mL and the Tmax ([2]; human, po, 250 mg, Schizophrenia patients, multiple oral doses (q12 h) 250 mg, day 10, read-out: Tmax (Mean)) was 4.8 h. For the same compound, the AUC(0-inf) ([2]; human, po, 250 mg, Schizophrenia patients, single oral dose 250 mg, day 1, read-out: AUC0-∞ (Geom. Mean)) was 76.1 ng·h/mL, the AUC(0-inf) ([2]; human, po, 250 mg, Schizophrenia patients, single oral dose 250 mg, day 1, read-out: AUC0-∞ (Mean)) was 109 ng·h/mL and the Cmax ([2]; human, po, 250 mg, Schizophrenia patients, single oral dose 250 mg, day 1, read-out: Cmax (Geom. Mean)) was 5.71 ng/mL. It also gave a Cmax ([2]; human, po, 250 mg, Schizophrenia patients, single oral dose 250 mg, day 1, read-out: Cmax (Mean)) of 8.89 ng/mL, a Tmax ([2]; human, po, 250 mg, Schizophrenia patients, single oral dose 250 mg, day 1, read-out: Tmax (Geom. Mean)) of 4.7 h and a Tmax ([2]; human, po, 250 mg, Schizophrenia patients, single oral dose 250 mg, day 1, read-out: Tmax (Mean)) of 5 h. For the same compound, the half-life ([2]; human, po, 250 mg, Schizophrenia patients, single oral dose 250 mg, day 1, read-out: t1/2 (Geom. Mean) (converted)) was 7.74 h and the half-life ([2]; human, po, 250 mg, Schizophrenia patients, single oral dose 250 mg, day 1, read-out: t1/2 (Mean) (converted)) was 8.04 h.
